Test results: US20220362174A1, “Use of R-enantiomer Beta2-agonists for prevent and treatment of pulmonary inflammation and inflammatory remodeling for reduced adverse effects” (priority 2019, published 2022)
Entries after “also recorded” stand apart in the source; their conditions may differ.

Legend:
BALB/c mice [1] = experiment: Survival study after LPS challenge (sepsis); type: in vivo; conditions: for Percent of death after LPS challenges, 24 h: Saline + LPS 36.4; for Percent of death after LPS challenges, 36 h: Saline + LPS 72.7; for Percent of death after LPS challenges, 48 h / Percent of death after LPS challenges, 72 h / Percent of death after LPS challenges, 144 h: Saline + LPS 90.9; for Percent of death after LPS challenges, 12 h: Saline + LPS 0; for rate of mortality/death after LPS challenge (in words): in comparison of LPS challenged group without pretreatment (mortality 90.9%)
Experimental: Treatment were given intraperitoneally for 3 consecutive days. One hour after the 3rd day treatments, LPS (15 mg/kg) was administered intraperitoneally. The animals were monitored. Survival rate was then recorded every 12 h for 144 hours.

[2] = test system: LPS-induced RAW264.7 cells; experiment: Seahorse analysis of OCR and ECAR; type: cell-based; conditions: LPS-treated cells
Experimental: (§1) Macrophages were treated without or with (R)/(S)-salbutamol for 1 h prior to LPS stimulation and subsequently incubated for 12 h. […] The fluorescence of the oxidized product (2′,7′-dichlorofluorescein, DCF) was assessed using an LSM710 Laser Scanning Confocal Microscope (Carl Zeiss, Jena, Germany). The concentration of NO in the culture supernatant was measured by assaying the concentrations of nitrite (a stable NO breakdown product) using the Griess assay (Beyotime, Shanghai, China), according to the manufacturer's instructions. The intracellular NO level was detected using the NO-sensitive fluorescence probe DAF-FM DA (Sigma, St. Louis, Mo., USA) (24). Cells were labeled with DAF-FM DA (10 μM) at 37° C. for 30 min and were gently washed three times with PBS. Fluorescence was detected using a LSM710 Laser Scanning Confocal Microscope (Scale bars, 100 μm) (Carl Zeiss, Jena, Germany).
Macrophage activation elicited different metabolic profiles. LPS-induced macrophages adopted glycolytic metabolic profiles. This invention disclosed a β2 adrenergic receptor mediated Warburg metabolism (aerobic glycolysis) of in LPS treated macrophages. The OCR and ECAR were measured using an extracellular flux analyzer. […] ECAR is a measurement extracellular acidification rate, an indication of cellular glycolytic rate.

[3] = test system: LPS-induced macrophage RAW264.7 cells; experiment: M1 macrophage cytokines (TNF-α, IL-1β, MCP-1) by ELISA; type: cell-based
Experimental: as §1
To confirm that M1 polarization was predominant over M2 polarization after stimulation with LPS, the levels of typical M1 macrophage cytokines (i.e., TNF-α, IL-1β and MCP-1) were quantified using ELISA; these cytokines are mainly synthesized by macrophages and play an important role in inflammatory diseases (35,36). This invention disclosed that TNF-α […] from 2.62-fold to 0.75-fold of control levels following LPS stimulation (FIG. 8A). IL-1β is a hallmark of many chronic inflammatory diseases in humans and is reportedly associated with acute phase reactions (35,37). […] We conclude that LPS is likely to lead to M1 polarization but not M2 polarization.

BALB/c mice [4] = experiment: Lung function measurements 6 hours after LPS (Buxco); type: in vivo
Experimental: Methods: Survival study: […] Treatment were given intraperitoneally for 3 consecutive days. […] The animals were monitored. Survival rate was then recorded every 12 h for 144 hours. The lung functions were measured with using Buxco system (Buxco Electronics, USA). After a brief acclimation to the chamber, the mice received an initial baseline challenge of saline. Measures were made at 6 hours after administration of LPS, including tidal volume and Penh which is an indication of airway resistance.

OVA induced asthma mice = experiment: Combination therapy of ipratropium with RS-, R- and S-salbutamol: airway resistance in response to methacholine; type: in vivo
Experimental: OVA sensitized/challenged asthma model Mice were sensitized and challenged with ovalbumin (OVA) or normal saline. […] On days 21, 22 and 23, the mice were challenged with 1% OVA in saline (0.01 g/mL) for 20 min via. a nebulizer (PART Turbo boy). […] In vivo airway responsiveness to methacholine (Mch) was assessed on day 28 in conscious, freely moving, spontaneously breathing mice by a whole-body plethysmography (Buxco Electronics Inc.). […] Before Mch challenge, a 20 μL drug aerosol or saline was given to the mice because of the short-acting bronchodilating effect of terbutaline. The degree of bronchoconstriction was expressed as enhanced pause (Penh), a calculated dimensionless value that correlates with measurement of airway resistance, impedance, and intrapleural pressure. […] Methods used were similar as mentioned above. Nebulized aerosol of saline, Methacholine 2 mg/ml (low dose) or 10 mg/ml (high dose) were given via inhalation to OVA induced asthma mice.

NF-κB and MARK pathways = experiment: NF-κB and MARK pathways, cytokines and ROS in LPS sepsis
Description: LPS interacts with pathogen recognition receptors such as TLRs would also activate NF-κB and MARK pathways, which would further lead to an over-production of cytokines. […] The “cytokine storm” in sepsis involves in excessive release of INFs, IL-1B, IL-2,4,6,10,12, TNFa and MCP etc.
In sepsis, there are also over productions of chemokines such as ROS. […] This invention disclosed the similar effects of other RS-racemic, S-enantiomer or R-enantiomer beta2 agonists including: salbutamol, bambuterol, vilanterol, clenterol, salmeterol, formoterol, trantinterol and Indacaterol and other β2 agonists.

RAW264.7 cells = experiment: Cell viability, CCK-8 assay; type: cell-based; conditions: up to 100 μM, with or without LPS (100 ng/mL)
[5] = test system: LPS-induced RAW264.7 cells; experiment: Intracellular ROS (DCFH-DA); type: cell-based
Experimental: as §1
LPS can promote cell apoptosis through mitochondrial dysfunction, and mitochondria are the major source of ROS.

[6] = test system: LPS-induced RAW264.7 cells; experiment: mRNA expression of TNF-α, IL-1β and MCP-1 by quantitative real-time PCR; type: cell-based; conditions: pretreated prior to LPS
Experimental: as §1
To examine the mRNA expression of TNF-α, IL-1β and MCP-1, quantitative real-time PCR was performed. Consistent with the cytokine expression study, the mRNA expression of TNF-α was increased by 2.26-fold in the LPS-induced group compared to the control group (FIG. 8D). The mRNA expression of IL-1β and MCP-1 increased by 12.74-fold (FIG. 8E) and 3.1-fold, respectively, in the LPS-induced group compared to the control group (FIG. 8F).

Structure (SMILES): CC(C)(C)NC[C@H](O)c1ccc(O)c(CO)c1 [R-salbutamol, (R)-Salbutamol]
- Percent of death after LPS challenges, 24 h (BALB/c mice [1]; 0.1 mg/kg + LPS): 20%
- Percent of death after LPS challenges, 36 h (BALB/c mice [1]; 0.1 mg/kg + LPS): 20%
- Percent of death after LPS challenges, 48 h (BALB/c mice [1]; 0.1 mg/kg + LPS): 40%
- Percent of death after LPS challenges, 72 h (BALB/c mice [1]; 0.1 mg/kg + LPS): 40%
- Percent of death after LPS challenges, 144 h (BALB/c mice [1]; 0.1 mg/kg + LPS): 40%
- Percent of death after LPS challenges, 12 h (BALB/c mice [1]; 0.1 mg/kg i.p. 3 days + LPS 15 mg/kg): 0%
- Percent of death after LPS challenges, 12 h (BALB/c mice [1]; 0.5 mg/kg + LPS): 0%
- Percent of death after LPS challenges, 24 h (BALB/c mice [1]; 0.5 mg/kg + LPS): 0%
- Percent of death after LPS challenges, 36 h (BALB/c mice [1]; 0.5 mg/kg + LPS): 0%
- Percent of death after LPS challenges, 48 h (BALB/c mice [1]; 0.5 mg/kg + LPS): 0%
- Percent of death after LPS challenges, 72 h (BALB/c mice [1]; 0.5 mg/kg + LPS): 0%
- Percent of death after LPS challenges, 144 h (BALB/c mice [1]; 0.5 mg/kg + LPS): 0%
- Percent of death, 12 h (BALB/c mice [1]; 0.5 mg/kg + saline (no LPS)): 0%
- Percent of death, 24 h (BALB/c mice [1]; 0.5 mg/kg + saline (no LPS)): 0%
- Percent of death, 36 h (BALB/c mice [1]; 0.5 mg/kg + saline (no LPS)): 0%
- Percent of death, 48 h (BALB/c mice [1]; 0.5 mg/kg + saline (no LPS)): 0%
- Percent of death, 72 h (BALB/c mice [1]; 0.5 mg/kg + saline (no LPS)): 0%
- Percent of death, 144 h (BALB/c mice [1]; 0.5 mg/kg + saline (no LPS)): 0%
- rate of mortality/death after LPS challenge (in words) (BALB/c mice [1]): survived
- rate of mortality/death after LPS challenge (in words) (BALB/c mice [1]; listed as (R)-salbutamol): greatly reduced or even diminished
- ECAR, aerobic glycolysis [2]: inhibited the aerobic glycolysis; also recorded: significantly reduced aerobic glycolysis
- concentration of MCP-1 (ELISA) ([3]; LPS alone 1.588 ng/mL): 1.15 ng/mL
- IL-1β (ELISA) ([3]; LPS alone 2.24-fold): 1.12 fold of control levels
- TNF-α (ELISA) ([3]; LPS alone 2.62-fold): 0.75 fold of control levels
- release and expression of cytokines in LPS induced M1 macrophages (in words) ([3]; LPS challenge): inhibited the expression of cytokines
- deterioration of respiratory function induced by LPS (in words) (BALB/c mice [4]): restored
- Tidal volume (BALB/c mice [4]; 0.1 mg/kg, LPS + saline 0.13 ± 0.03, Saline 0.22 ± 0.02): 0.17 ± 0.02 mL
- Penh (BALB/c mice [4]; 0.1 mg/kg, LPS + saline 1.31 ± 0.40, Saline 0.54 ± 0.09): 0.68 ± 0.09
- Tidal volume (BALB/c mice [4]; 0.5 mg/kg, LPS + saline 0.13 ± 0.03): 0.21 ± 0.02 mL
- Penh (BALB/c mice [4]; 0.5 mg/kg, LPS + saline 1.31 ± 0.40): 0.53 ± 0.07
- increase in airway resistant in response to methacholine (in words) (OVA induced asthma mice): significantly diminished
- increase in airway resistance after treatment (OVA induced asthma mice; response to methacholine, OVA + Saline 445%): 180%
- over production of inducible NO (iNO) and another ROS (NF-κB and MARK pathways; LPS sepsis): significantly prevent and inhibit
- production or release of cytokines (cytokine storm) (NF-κB and MARK pathways; sepsis): significantly reduced
- cell viability (RAW264.7 cells): no changes in cell viability
- production/levels of ROS (in words) ([5]; LPS-induced cells): significantly decreased
- decrease of the level of DCF (ROS) ([5]; pretreated before LPS, LPS increased 7.30-fold): 3.38 fold
- mRNA level of TNF-α ([6]; LPS alone 2.26-fold of control): significantly decreased
- mRNA level of MCP-1 ([6]; LPS alone 3.1-fold of control): significantly decreased
- mRNA level of IL-1β ([6]; LPS alone 12.74-fold of control): significantly decreased
